From US20210196725A1, “TREATMENT OF RELAPSED FOLLICULAR LYMPHOMA” (MEI Pharma, Inc., priority 2018, published 2021)
Marks after values point to notes of the source that are not given here.

Columns and labels:
[1] = test system: patients with follicular lymphoma (FL); test: Phase 1b study: patient disposition on continuous (CS) or intermittent (IS) schedule; format: in vivo, human
Procedure: (§1) Methods: Patients with ECOG ≤2, no prior PI3K therapy and progression of disease (POD) after ≥1 prior therapy were initially enrolled in a dose escalation phase (60-180 mg) then in 60 mg expansion cohorts as monotherapy or in combination with rituximab. Treatment is given in 28-day cycles and continued until POD or unacceptable toxicity. Compound A35 was given initially on a continuous daily dosing schedule. An intermittent dosing schedule on days 1-7 of a 28-day cycle was then evaluated after 2 cycles of daily dosing, or ≥3 cycles of daily dosing to reduce the risk of immune-related adverse events. For this analysis the intermittent schedule (IS) group is defined as patients who received Compound A35 alone or with rituximab daily for 2 cycles then switched to an intermittent schedule of 1 week per cycle, and the continuous schedule (CS) group is defined as patients who never switched to intermittent dosing or switched to intermittent dosing in cycle 4 or later cycles. Toxicity on CS is managed by a switch to IS. Progression of disease (POD) on IS is managed by a switch to CS.

[2] = Tumor exposure of Compound A35 (FIG. 3); format: in vivo; settings: over a 4-hour and 24-hour period (FIG. 3)
[3] = test system: murine B-cell tumors; test: Retention in murine B-cell tumors (FIG. 4); format: in vivo; settings: compared to idelalisib (FIG. 4)
[4] = test system: patients with follicular lymphoma (FL); test: Phase 1b study of Compound A35 alone or with rituximab: disease response in follicular lymphoma patients; format: in vivo, human
Procedure: In an ongoing Phase 1b study, patients with relapsed B-cell malignancies are administered Compound A35 either as a single agent or in combination with the anti-CD20 antibody rituximab (Rituxan®). A total of 90 subjects have been enrolled in the study to date: • 31 subjects enrolled in a dose escalation cohort of Compound A35 administered as a single agent at a daily dose of 60, 120, and 180 mg; • 21 subjects enrolled in an ongoing expansion cohort of Compound A35 administered as a single agent at 60 mg/day, either on a daily continuous schedule (CS) only or on a daily dosing followed by a switch to an intermittent dosing schedule […] beginning in Cycle 3. • 38 subjects enrolled in a cohort of Compound A35 at 60 mg/day on a CS or IS dosing plus infusional rituximab at a dose of 375 mg/m^2 administered for a total of 8 doses in 6 months
Patients with FL were treated with Compound A35 either alone (N=40) or in combination with the anti-CD20 antibody rituximab (N=14). Most patients in the rituximab combination cohort received Compound A35 by intermittent schedule (IS) after 2 cycles of daily dosing of Compound A35.
as §1

[5] = test system: patients with follicular lymphoma (FL); test: Phase 1b study: patients with adverse events of special interest (AESI); format: in vivo, human
Procedure: as §1

[6] = CS Group (N = 25), Compound A35 alone arm
[7] = CS Group (N = 31), A35 alone or with rituximab
[8] = FL patients, A35 alone or with rituximab
[9] = IS Group (N = 15), Compound A35 alone arm
[10] = IS Group (N = 23), A35 alone or with rituximab
[11] = All Grades, All (N = 40), single agent therapy
[12] = All Grades, CS Group (N = 25), single agent therapy
[13] = All Grades, CS Group (N = 31), A35 alone or with rituximab
[14] = All Grades, IS Group (N = 15), single agent therapy
[15] = All Grades, IS Group (N = 23), A35 alone or with rituximab
[16] = Grade 3, CS Group (N = 31), A35 alone or with rituximab
[17] = Grade 3, IS Group (N = 23), A35 alone or with rituximab
[18] = Related Grade 3, All (N = 40), single agent therapy
[19] = Related Grade 3, CS Group (N = 25), single agent therapy
[20] = Related Grade 3, IS Group (N = 15), single agent therapy

With `CN1CCC(c2ccccc2CC(C)(C)Nc2nc(N3CCOCC3)nc(-n3c(C(F)F)nc4ccccc43)n2)CC1` [Compound A35] the “Patient Disposition: Adverse event” value [1, 6] was 3 (12%), the “Patient Disposition: Progressive disease” value [1, 6] was 4 (16%) and the “Patient Disposition: Adverse event” value [1, 7] was 3 (10%). For the same compound, the “Patient Disposition: Progressive disease” value [1, 7] was 4 (13%), the “patients discontinued: POD” value [1, 8] was 9 patients and the “patients discontinued: adverse events (AEs)” value [1, 8] was 4 patients. For the same compound, the “Patient Disposition: Adverse event” value [1, 9] was 1 (7%), the “Patient Disposition: Progressive disease” value [1, 9] was 0% and the “Patient Disposition: Adverse event” value [1, 10] was 1 (4%). For the same compound, the “Patient Disposition: Progressive disease” value [1, 10] was 0 (0%), the tumor exposure [2] was “preferential tumor exposure” and the “retention in murine B-cell tumors” value [3] was “preferential retention”. The “rate of response in POD24 patients” value ([4]; A35 alone or in combination with a CD20 inhibitor, higher than expected with conventional FL therapy) was “very high rate of response”, the “morphologic/metabolic CR” value ([4]; FL patients with follow-up disease assessment, Compound A35 alone) was 20% and the “No. (%) of Subjects with a Response” value ([4]; No POD24, Total (A35 alone and A35 + rituximab cohorts)) was 16 (67%) No. (%). The “No. (%) of Subjects with a Response” value ([4]; No POD24 FL subjects evaluable for response) was 14 (64%) No. (%), the “No. (%) of Subjects with a Response” value ([4]; POD24, Total (A35 alone and A35 + rituximab cohorts)) was 24 (92%) No. (%) and the “No. (%) of Subjects with a Response” value ([4]; POD24 FL subjects evaluable for response) was 16 (100%) No. (%). The “rate of durable responses” value ([4]; R/R FL) was “high rate of durable responses”, the “POD24 subjects with response who had PD” value ([4]; of 24 POD24 subjects who achieved response) was 6 subjects and the “AESI: ALT/AST increased” value [5, 11] was 9 (22.5%). For the same compound, the “AESI: Diarrhea/colitis” value [5, 11] was 17 (42.5%), the “AESI: Mucositis” value [5, 11] was 6 (15.0%) and the “AESI: Pneumonia/ Pneumonitis” value [5, 11] was 2 (5.0%). For the same compound, the “AESI: Rash, all types” value [5, 11] was 12 (30.0%), the “AESI: ALT/AST increased” value [5, 12] was 6 (24.0%) and the “AESI: Diarrhea/colitis” value [5, 12] was 10 (40.0%). For the same compound, the “AESI: Mucositis” value [5, 12] was 6 (24.0%), the “AESI: Pneumonia/ Pneumonitis” value [5, 12] was 2 (8.0%) and the “AESI: Rash, all types” value [5, 12] was 11 (44.0%). The “AESI: ALT/AST increased” value [5, 13] was 8 (25.8%), the “AESI: Diarrhea/colitis” value [5, 13] was 11 (35.5%) and the “AESI: Mucositis” value [5, 13] was 6 (19.4%). For the same compound, the “AESI: Pneumonia” value [5, 13] was 2 (6.5%), the “AESI: Rash, all types” value [5, 13] was 11 (35.5%) and the “AESI: ALT/AST increased” value [5, 14] was 3 (20.0%). For the same compound, the “AESI: Diarrhea/colitis” value [5, 14] was 7 (46.7%), the “AESI: Mucositis” value [5, 14] was 0% and the “AESI: Pneumonia/ Pneumonitis” value [5, 14] was 0%. The “AESI: Rash, all types” value [5, 14] was 1 (6.7%), the “AESI: ALT/AST increased” value [5, 15] was 7 (30.4%) and the “AESI: Mucositis” value [5, 15] was 1 (4.3%). For the same compound, the “AESI: Pneumonia” value [5, 15] was 0%, the “AESI: Rash, all types” value [5, 15] was 2 (8.7%) and the “AESI: Diarrhea/colitis” value ([5]; All Grades, IS Group (N = 23), A35 alone or with rituximab, excluded 1 subject with diarrhea after POD and 1 with one-day diarrhea) was 11 (47.8%)*. For the same compound, the “AESI: ALT/AST increased” value [5, 16] was 3 (9.7%), the “AESI: Diarrhea/colitis” value [5, 16] was 5 (16.1%) and the “AESI: Mucositis” value [5, 16] was 1 (3.2%). The “AESI: Pneumonia” value [5, 16] was 2 (6.5%), the “AESI: Rash, all types” value [5, 16] was 4 (12.9%) and the “AESI: ALT/AST increased” value [5, 17] was 1 (4.3%). For the same compound, the “AESI: Diarrhea/colitis” value [5, 17] was 2 (8.7%), the “AESI: Mucositis” value [5, 17] was 0% and the “AESI: Pneumonia” value [5, 17] was 0%. The “AESI: Rash, all types” value [5, 17] was 0%, the “Grade 3 immune-related adverse events” value ([5]; IS group (N=23) compared to the CS group (N=31)) was “less common” and the “AESI: ALT/AST increased” value [5, 18] was 3 (7.5%). For the same compound, the “AESI: Diarrhea/colitis” value [5, 18] was 6 (15.0%), the “AESI: Mucositis” value [5, 18] was 1 (2.5%) and the “AESI: Pneumonia/ Pneumonitis” value [5, 18] was 2 (5.0%). For the same compound, the “AESI: Rash, all types” value [5, 18] was 4 (10.0%), the “AESI: ALT/AST increased” value [5, 19] was 3 (12.0%) and the “AESI: Diarrhea/colitis” value [5, 19] was 5 (20.0%). For the same compound, the “AESI: Mucositis” value [5, 19] was 1 (4.0%), the “AESI: Pneumonia/ Pneumonitis” value [5, 19] was 2 (8.0%) and the “AESI: Rash, all types” value [5, 19] was 4 (16.0%). For the same compound, the “AESI: ALT/AST increased” value [5, 20] was 0%, the “AESI: Diarrhea/colitis” value [5, 20] was 1 (6.7%) and the “AESI: Mucositis” value [5, 20] was 0%. For the same compound, the “AESI: Pneumonia/ Pneumonitis” value [5, 20] was 0%, the “AESI: Rash, all types” value [5, 20] was 0% and the “incidence of immune-related adverse events (irAEs)” value ([5]; intermittent schedule (IS)) was “appears to reduce the incidence”.
